The text below walks through data of patent US20250144094A1 (Erasca, Inc., priority 2021, published 2025).

The test concerns the target Recombinant human ULK1 (1-649) (Homo sapiens (Human), UniProt O75385). As to the kind of experiment: ULK1 ADP Glo kinase activity assay, new method (ULKtide peptide substrate). Conditions: 25° C., 40 minutes, read-out: ULK1 biochemical IC50. On the procedure:
Recombinant human ULK1 (1-649) protein expressed in Sf9 insect cells was obtained from SignalChem (Vancouver, BC), catalog #U01-11G. Active kinase was purified via N-terminal GST tag to >85% purity.
ADP GLO Kinase Assay Reagents were obtained from Promega Corp (Madison, WI), catalog #V9104.
Synthetic peptide substrate (ULKtide) with the amino acid sequence YANWLAASIYLDGKKK was obtained from ThermoFisher Scientific USA.
ULK1 inhibitor potency was determined using the luminescent ADP Glo Kinase Assay (Promega), a universal ADP detection system that measures kinase activity by quantifying the amount of ADP produced during a kinase reaction. ULK1 kinase reactions are performed in a standard 96-well microplate (20 μL reaction volume) at 25° C. for 40 minutes in the presence or absence of the test compound (12-point dilution series starting at 10 μM). Addition of peptide substrate and ATP initiates the kinase reaction.
The standard ADP Glo assay is performed in two steps. In step one, following the kinase reaction, an equal volume of ADP-Glo™ Reagent (20 μL) is added to terminate the kinase reaction and deplete the remaining ATP. In the second step, the Kinase Detection Reagent (10 μL) is added to simultaneously convert ADP to ATP and allow the newly synthesized ATP to be measured using a luciferase/luciferin reaction. Step two of the ADP Glo assay is performed in a white 384-well plate (20 μL final volume). Thirty minutes after the addition of the Detection reagent, light generated from the luciferase reaction is measured (1 second exposure) using a microplate compatible luminometer (CLARIOstar, BMG Labtech).
Inhibition of ULK1 kinase activity is determined for each test compound by comparison to DMSO only control wells. Inhibitor IC50 was calculated by plotting the change in luminescence after 30 minutes (response) versus inhibitor concentration (in log molar) then applying the four-parameter variable slope curve fit (GraphPad Prism). Inhibition of ULK1 in biochemical assay is found in Table 4.
On the technique in general: ADP-Glo turns the ADP formed in a reaction into a luminescent signal.

Chain of Recombinant human ULK1 (1-649) (O75385 1-649): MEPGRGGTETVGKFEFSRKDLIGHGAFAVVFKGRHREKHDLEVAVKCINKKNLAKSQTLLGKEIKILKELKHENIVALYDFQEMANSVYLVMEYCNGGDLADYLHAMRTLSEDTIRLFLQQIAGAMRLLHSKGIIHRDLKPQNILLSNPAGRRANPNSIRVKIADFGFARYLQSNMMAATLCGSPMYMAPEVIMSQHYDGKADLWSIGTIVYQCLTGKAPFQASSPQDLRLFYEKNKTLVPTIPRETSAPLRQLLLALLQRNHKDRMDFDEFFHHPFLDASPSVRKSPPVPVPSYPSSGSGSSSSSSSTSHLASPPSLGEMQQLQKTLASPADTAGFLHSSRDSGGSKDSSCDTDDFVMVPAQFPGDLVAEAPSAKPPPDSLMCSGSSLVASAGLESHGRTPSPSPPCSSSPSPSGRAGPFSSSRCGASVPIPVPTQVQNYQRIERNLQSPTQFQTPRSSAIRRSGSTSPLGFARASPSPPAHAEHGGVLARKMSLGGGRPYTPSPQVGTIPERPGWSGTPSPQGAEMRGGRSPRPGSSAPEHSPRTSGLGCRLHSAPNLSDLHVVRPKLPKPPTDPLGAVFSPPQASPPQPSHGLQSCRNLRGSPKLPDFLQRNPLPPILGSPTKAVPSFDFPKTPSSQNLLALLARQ

With “4-cyclopropyl-7-(2-((4-(1-(2,2-difluoroethyl)piperidin-4-yl)-2-ethylphenyl)amino)-5-(trifluoromethyl)pyrimidin-4-yl)-3,4-dihydrothieno[2,3-f][1,4]thiazepin-5(2H)-one 1,1-dioxide [Example 281]”, the half-inhibitory concentration (IC50) (in general, the concentration that gives 50% inhibition) was in the range of 5 to 10 nM.

As for `Cc1ccc(C2CNC2)cc1Nc1ncc(C(F)(F)F)c(-c2cc(S(C)(=O)=O)cs2)n1` [Example 136, N-(5-(azetidin-3-yl)-2-methylphenyl)-4-(4-(methylsulfonyl)thiophen-2-yl)-5-(trifluoromethyl)pyrimidin-2-amine], the half-inhibitory concentration (IC50) was in the range of 50 to 100 nM.

Take `Cc1ccc(C2CN(C)C2)cc1Nc1ncc(C(F)(F)F)c(-c2cc(S(C)(=O)=O)cs2)n1` [Example 137, N-(2-Methyl-5-(1-methylazetidin-3-yl)phenyl)-4-(4-(methylsulfonyl)thiophen-2-yl)-5-(trifluoromethyl)pyrimidin-2-amine]: the half-inhibitory concentration (IC50) was above 100 nM.

Turning to `CCc1cc2c(cc1Nc1ncc(C(F)(F)F)c(-c3cc4c(s3)C(=O)NCCS4(=O)=O)n1)CCNC2` [Example 138, 7-(2-((7-ethyl-1,2,3,4-tetrahydroisoquinolin-6-yl)amino)-5-(trifluoromethyl)pyrimidin-4-yl)-3,4-dihydrothieno[2,3-f][1,4]thiazepin-5(2H)-one 1,1-dioxide], the half-maximal inhibitory concentration (IC50) was at most 5 nM.

For the compound `CN1CCc2cc(Nc3ncc(C(F)(F)F)c(-c4cc5c(s4)C(=O)NCCS5(=O)=O)n3)c(F)cc2C1` [Example 139, 7-(2-((7-fluoro-2-methyl-1,2,3,4-tetrahydroisoquinolin-6-yl)amino)-5-(trifluoromethyl)pyrimidin-4-yl)-3,4-dihydrothieno[2,3-f][1,4]thiazepin-5(2H)-one 1,1-dioxide], the half-inhibitory concentration (IC50) was at most 5 nM.

On to `CN1CCc2cc(Nc3ncc(C(F)(F)F)c(-c4cc5c(s4)C(=O)N(C)CCS5(=O)=O)n3)c(F)cc2C1` [Example 140, 7-(2-((7-fluoro-2-methyl-1,2,3,4-tetrahydroisoquinolin-6-yl)amino)-5-(trifluoromethyl)pyrimidin-4-yl)-4-methyl-3,4-dihydrothieno[2,3-f][1,4]thiazepin-5(2H)-one 1,1-dioxide], for which the IC50 is at most 5 nM.

As to `CN1CCS(=O)(=O)c2cc(-c3nc(Nc4cn(C5CCNCC5)nc4C4CC4)ncc3C(F)(F)F)sc2C1=O` [Example 141, 7-(2-((3-cyclopropyl-1-(piperidin-4-yl)-1H-pyrazol-4-yl)amino)-5-(trifluoromethyl)pyrimidin-4-yl)-4-methyl-3,4-dihydrothieno[2,3-f][1,4]thiazepin-5(2H)-one 1,1-dioxide], the half-inhibitory concentration (IC50) is at most 5 nM.

Consider `CCN1CCS(=O)(=O)c2cc(-c3nc(Nc4cc5c(cc4Cl)CN(C)CC5)ncc3C(F)(F)F)sc2C1=O` [Example 142, 7-(2-((7-chloro-2-methyl-1,2,3,4-tetrahydroisoquinolin-6-yl)amino)-5-(trifluoromethyl)pyrimidin-4-yl)-4-ethyl-3,4-dihydrothieno[2,3-f][1,4]thiazepin-5(2H)-one 1,1-dioxide], for which the IC50 was at most 5 nM.

As for `O=C1c2sc(-c3nc(Nc4cc5c(cc4Cl)CNCC5)ncc3C(F)(F)F)cc2S(=O)(=O)CCN1CC(F)(F)F` [Example 143, 7-(2-((7-chloro-1,2,3,4-tetrahydroisoquinolin-6-yl)amino)-5-(trifluoromethyl)pyrimidin-4-yl)-4-(2,2,2-trifluoroethyl)-3,4-dihydrothieno[2,3-f][1,4]thiazepin-5(2H)-one 1,1-dioxide], the IC50 was at most 5 nM.

In the case of `CN1CCc2cc(Nc3ncc(C(F)(F)F)c(-c4cc5c(s4)C(=O)N(CC(F)(F)F)CCS5(=O)=O)n3)c(Cl)cc2C1` [Example 144, 7-(2-((7-chloro-2-methyl-1,2,3,4-tetrahydroisoquinolin-6-yl)amino)-5-(trifluoromethyl)pyrimidin-4-yl)-4-(2,2,2-trifluoroethyl)-3,4-dihydrothieno[2,3-f][1,4]thiazepin-5(2H)-one 1,1-dioxide], the IC50 was at most 5 nM.

Turning to `CN1CC(n2cc(Nc3ncc(C(F)(F)F)c(-c4cc(S(C)(=O)=O)cs4)n3)c(C3CC3)n2)C1` [Example 145, N-(3-cyclopropyl-1-(1-methylazetidin-3-yl)-1H-pyrazol-4-yl)-4-(4-(methylsulfonyl)thiophen-2-yl)-5-(trifluoromethyl)pyrimidin-2-amine], the IC50 is 5 to 10 nM.

On to `CCc1cc2c(cc1Nc1ncc(C(F)(F)F)c(-c3cc4c(s3)C(=O)NCCS4(=O)=O)n1)CCN(C)C2` [Example 146, 7-(2-((7-ethyl-2-methyl-1,2,3,4-tetrahydroisoquinolin-6-yl)amino)-5-(trifluoromethyl)pyrimidin-4-yl)-3,4-dihydrothieno[2,3-f][1,4]thiazepin-5(2H)-one 1,1-dioxide], for which the half-inhibitory concentration (IC50) was at most 5 nM.

With `CCc1cc2c(cc1Nc1ncc(C(F)(F)F)c(-c3cc4c(s3)C(=O)N(C)CCS4(=O)=O)n1)CCNC2` [Example 147, 7-(2-((7-ethyl-1,2,3,4-tetrahydroisoquinolin-6-yl)amino)-5-(trifluoromethyl)pyrimidin-4-yl)-4-methyl-3,4-dihydrothieno[2,3-f][1,4]thiazepin-5(2H)-one 1,1-dioxide], the IC50 was at most 5 nM.

Turning to `CCc1cc2c(cc1Nc1ncc(C(F)(F)F)c(-c3cc4c(s3)C(=O)N(C)CCS4(=O)=O)n1)CCN(C)C2` [Example 148, 7-(2-((7-ethyl-2-methyl-1,2,3,4-tetrahydroisoquinolin-6-yl)amino)-5-(trifluoromethyl)pyrimidin-4-yl)-4-methyl-3,4-dihydrothieno[2,3-f][1,4]thiazepin-5(2H)-one 1,1-dioxide], the IC50 is at most 5 nM.

As to `CN1CCS(=O)(=O)c2cc(-c3nc(Nc4cc(C5CCNCC5)ccc4Cl)ncc3C(F)(F)F)sc2C1=O` [Example 149, 7-(2-((2-chloro-5-(piperidin-4-yl)phenyl)amino)-5-(trifluoromethyl)pyrimidin-4-yl)-4-methyl-3,4-dihydrothieno[2,3-f][1,4]thiazepin-5(2H)-one 1,1-dioxide], the IC50 lay within 10 to 50 nM.

As to `CN1CCC(c2ccc(Cl)c(Nc3ncc(C(F)(F)F)c(-c4cc5c(s4)C(=O)N(C)CCS5(=O)=O)n3)c2)CC1` [Example 150, 7-(2-((2-chloro-5-(1-methylpiperidin-4-yl)phenyl)amino)-5-(trifluoromethyl)pyrimidin-4-yl)-4-methyl-3,4-dihydrothieno[2,3-f][1,4]thiazepin-5(2H)-one 1,1-dioxide], the IC50 is 10 to 50 nM.

Turning to `O=C1NCCS(=O)(=O)c2cc(-c3nc(Nc4cn(C5CCNCC5)nc4C4CC4)ncc3C(F)(F)F)sc21` [Example 151, 7-(2-((3-cyclopropyl-1-(piperidin-4-yl)-1H-pyrazol-4-yl)amino)-5-(trifluoromethyl)pyrimidin-4-yl)-3,4-dihydrothieno[2,3-f][1,4]thiazepin-5(2H)-one 1,1-dioxide], the IC50 is at most 5 nM.

As to `CN1CCC(n2cc(Nc3ncc(C(F)(F)F)c(-c4cc5c(s4)C(=O)NCCS5(=O)=O)n3)c(C3CC3)n2)CC1` [Example 152, 7-(2-((3-cyclopropyl-1-(1-methylpiperidin-4-yl)-1H-pyrazol-4-yl)amino)-5-(trifluoromethyl)pyrimidin-4-yl)-3,4-dihydrothieno[2,3-f][1,4]thiazepin-5(2H)-one 1,1-dioxide], the IC50 is at most 5 nM.

For `CN1CCc2cc(Nc3ncc(C(F)(F)F)c(-c4cc5c(s4)C(=O)N(CC4CC4)CCS5(=O)=O)n3)c(Cl)cc2C1` [Example 154, 7-(2-((7-chloro-2-methyl-1,2,3,4-tetrahydroisoquinolin-6-yl)amino)-5-(trifluoromethyl)pyrimidin-4-yl)-4-(cyclopropylmethyl)-3,4-dihydrothieno[2,3-f][1,4]thiazepin-5(2H)-one 1,1-dioxide], the concentration for half-maximal inhibition (IC50) is at most 5 nM.

On to `O=C1c2sc(-c3nc(Nc4cc5c(cc4Cl)CNCC5)ncc3C(F)(F)F)cc2S(=O)(=O)CCN1C1CC1` [Example 155, 7-(2-((7-chloro-1,2,3,4-tetrahydroisoquinolin-6-yl)amino)-5-(trifluoromethyl)pyrimidin-4-yl)-4-cyclopropyl-3,4-dihydrothieno[2,3-f][1,4]thiazepin-5(2H)-one 1,1-dioxide], for which the IC50 is at most 5 nM.

Turning to `CN1CCS(=O)(=O)c2cc(-c3nc(Nc4cc5c(cc4Cl)CNCC5)ncc3C(F)(F)F)sc2C1=O` [Example 156, 7-(2-((7-chloro-1,2,3,4-tetrahydroisoquinolin-6-yl)amino)-5-(trifluoromethyl)pyrimidin-4-yl)-4-methyl-3,4-dihydrothieno[2,3-f][1,4]thiazepin-5(2H)-one 1,1-dioxide], the IC50 is at most 5 nM.

On to `CN1CCS(=O)(=O)c2cc(-c3nc(Nc4cc5c(cc4F)CNC5)ncc3C(F)(F)F)sc2C1=O` [Example 157, 7-(2-((6-fluoroisoindolin-5-yl)amino)-5-(trifluoromethyl)pyrimidin-4-yl)-4-methyl-3,4-dihydrothieno[2,3-f][1,4]thiazepin-5(2H)-one 1,1-dioxide], for which the half-maximal inhibitory concentration (IC50) was at most 5 nM.
